By pKa is commonly meant the negative logarithm of the acid dissociation constant. Lower therefore signals a group that gives up its proton readily.

For one data set the following is noted: acidic group.
The compound `CCOC(=O)COc1ccc(C(=O)c2ccc(O)c(C[NH3+])c2)cc1` came in with a pKa of 7.34.

The compound `N#CC(C#N)c1ccc([N+](=O)[O-])cc1` came in with a pKa of 2.35.

For the compound `Cc1ccc(C(=O)c2ccccc2C(=O)O)cc1`, the pKa worked out at 3.64.

Compound `CC/C(N=O)=N/O` had a pKa of 5.8.

`O=S1(=O)N=CNc2ccncc21` came in with a pKa of 6.71.

`S=c1[nH]c2ccccc2o1` came in with a pKa of 6.33.

In turn, `O=C(O)[C@@H]1O[C@H](Oc2ccc3ccc[nH+]c3c2)[C@@H](O)[C@H](O)[C@H]1O` showed a pKa of 3.

Regarding `[O-]c1[nH+]c(O)c(Br)c[n+]1[C@H]1O[C@@H](CO)[C@H](O)[C@@H]1O`, the pKa is -0.9.

Take `CCOP(=O)(O)NS(=O)(=O)c1ccccc1`: the pKa turned out to be 1.8.

In turn, `Cc1c(Cn2cc[nH+]c2)oc2ccc(C(=O)O)cc12` had a pKa of 3.91.

On to `N#CC(C#N)=C(C(C#N)C#N)C(C#N)C#N`, for which the pKa amounted to 2.25.

`CC(=O)c1ccc(O)c([N+](=O)[O-])c1`: the pKa is 5.09.

Compound `NS(=O)(=O)c1ccc(F)cc1` came in with a pKa of 9.34.

As for `Cc1ccc(C(O)C(C(=O)O)c2ccc(C3CCCCC3)cc2)cc1` (centres undefined), the pKa turned out to be 4.18.

With `Oc1ccc2cnccc2c1`, the pKa was determined as 9.15.

Turning to `Nc1nccc2c1[nH+]cn2CCOCP(=O)(O)O`, the pKa was found to be 1.23.

In turn, `COc1ccc(-c2nc3ncncc3[nH]2)c(OC)c1` registered a pKa of 9.92.

As to `Nc1ccccc1B(O)O`, the pKa turned out to be 9.23.

`CC([SeH])C[NH3+]` (centres undefined) had a pKa of 5.19.

`COc1ccc(O)c(=O)cc1` came in with a pKa of 7.75.

Turning to `NC(=O)c1ccccc1O`, the pKa turned out to be 8.61.

In the case of `CN1c2ccccc2Nc2ccc(O)cc21`, the pKa stood at 10.1.

Still in this data set, the particulars now being: basic group.
`Cc1cc(-c2ccccc2)nn2c(C[NH+]3CCOCC3)cnc12`: the pKa was 2.9.

Compound `CN1CCCC1` had a pKa of 10.6.

As for `CCN(CC)CCCCNc1ccnc2ccccc12`, the pKa was 10.2.

Take `O=C([O-])c1cccnc1`: the pKa is 4.83.

As for `CCCCc1ccccc1N`, the pKa was found to be 4.26.

As for `CNc1nc(NC)c2cn[nH]c2n1`, the pKa amounted to 6.08.

The compound `CCN(CC)Cc1ccccc1` came in with a pKa of 9.44.

As for `CN(C)CCCCC(=O)Oc1cccc([N+](=O)[O-])c1`, the pKa came to 10.1.

On to `CCSC(=O)c1ccc(C)cc1`, for which the pKa is -4.2.

On to `Nc1ccc(C(=O)c2ccc([NH3+])cc2)cc1`, for which the pKa amounted to 1.37.

`CN1Cc2c(ccc3c2OCO3)-c2ccc3cc4c(cc3c21)OCO4`: the pKa worked out at 2.6.

Compound `CC(=O)N1CCNCC1` returned a pKa of 7.94.

In turn, `CCCCN(CC1CO1)CC1CO1` (centres undefined) yielded a pKa of 6.91.

Compound `Nc1cccc2ccnnc12` registered a pKa of 3.68.

For the compound `C=CCOc1nc(N)nc(N)n1`, the pKa was determined as 3.43.

For `C[NH+](C)CCCNc1c2ccccc2nc2cccc([N+](=O)[O-])c12`, the pKa worked out at 6.2.

As for `N[C@H]1C[C@@H]1N`, the pKa was found to be 8.82.

Regarding `CC(C)NNC1CC[NH+](C)CC1`, the pKa came to 6.32.

For the compound `CO[C@H]1C=CC2=CCN3CCC(CO)=C(CCO)[C@]23C1`, the pKa amounted to 7.8.

On to `CCC(=O)C(CC(C)N(C)C)(c1ccccc1)c1ccccc1` (centres undefined), for which the pKa was 8.62.

Take `Oc1ccc2cnccc2c1`: the pKa was 5.85.

On to `Nc1nccc2c1[nH+]cn2CCOCP(=O)(O)O`, for which the pKa was 0.15.

The compound `SCCNCc1cccs1` gave a pKa of 8.93.

For the compound `COc1ccc(-c2nc3ncncc3[nH]2)c(OC)c1`, the pKa turned out to be 3.09.

With `CCCCCCCCN(CCO)CC(C)O` (centres undefined), the pKa is 8.2.

`Nc1ccccc1B(O)O` yielded a pKa of 4.58.

`CCCCN/C(C)=N/N(C)C`: the pKa is 10.4.

On to `CN(C)C[C@@H]1[C@@H](N)[C@]2(C)CC[C@@H]1C2(C)C`, for which the pKa worked out at 9.45.

`CCOC(=O)COc1ccc(C(=O)c2ccc([O-])c(CN)c2)c(Cl)c1Cl` came in with a pKa of 10.6.

The compound `Cc1cnc2c(c1)c(C)cc1c(C)ccnc12` had a pKa of 5.9.

With `CN1c2ccccc2Nc2ccc(O)cc21`, the pKa turned out to be 1.

`CCN(CC)Cc1cc([N+](=O)[O-])ccc1[O-]`: the pKa stood at 11.
